Test results from the supplement of paper PMC10307832.

Tests used:
Test in all cases: relative viability (nuclei count vs DMSO), 5 days (fraction); higher = more cells survive
[1] = tested on: A549
Outline: (§1)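 The day after seeding in 1536-well plates, lung cancer cell lines were treated by pin tool with a single drug, or with a fixed anchor-drug dose together with five library-drug doses (not always all listed) in √10 steps. After 5 days, a combined fix-and-stain solution (final 0.05% Triton X-100, 1% formaldehyde, 1 ug/ml Hoechst) was added. Nuclei counted on 4× images gave relative viability as treated counts over vehicle counts, reported as the median of duplicate plates.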

[2] = tested on: COR-L 105
Outline: as §1

[3] = tested on: Calu-6
Outline: as §1

[4] = tested on: EBC-1
Outline: as §1

[5] = tested on: IA-LM
Outline: as §1

[6] = tested on: LK-2
Outline: as §1

[7] = tested on: NCI-H1299
Outline: as §1

[8] = tested on: NCI-H1355
Outline: as §1

[9] = tested on: NCI-H1703
Outline: as §1

[10] = tested on: NCI-H520
Outline: as §1

CCN(CC)CCCCNc1ncc2cc(-c3cc(OC)cc(OC)c3)c(NC(=O)NC(C)(C)C)nc2n1 + CS(=O)(=O)CCNCc1ccc(-c2ccc3ncnc(Nc4ccc(OCc5cccc(F)c5)c(Cl)c4)c3c2)o1 [Lapatinib] (partner 2 µM)
relative viability ([1]; first compound 0.01 µM): 1.11
relative viability ([1]; first compound 0.03162 µM): 0.957
relative viability ([1]; first compound 0.1 µM): 1.45
relative viability ([1]; first compound 0.3162 µM): 0.972
relative viability ([1]; first compound 1 µM): 0.875
relative viability ([2]; first compound 0.01 µM): 0.386
relative viability ([2]; first compound 0.03162 µM): 0.361
relative viability ([2]; first compound 0.1 µM): 0.399
relative viability ([2]; first compound 0.3162 µM): 0.422
relative viability ([2]; first compound 1 µM): 0.387
relative viability ([3]; first compound 0.01 µM): 1.09
relative viability ([3]; first compound 0.03162 µM): 1.15
relative viability ([3]; first compound 0.1 µM): 1.31
relative viability ([3]; first compound 0.3162 µM): 1.24
relative viability ([3]; first compound 1 µM): 1.02
relative viability ([4]; first compound 0.01 µM): 0.228
relative viability ([4]; first compound 0.03162 µM): 0.231
relative viability ([4]; first compound 0.1 µM): 0.209
relative viability ([4]; first compound 0.3162 µM): 0.217
relative viability ([4]; first compound 1 µM): 0.208
relative viability ([5]; first compound 0.01 µM): 0.805
relative viability ([5]; first compound 0.03162 µM): 0.644
relative viability ([5]; first compound 0.1 µM): 0.917
relative viability ([5]; first compound 0.3162 µM): 0.793
relative viability ([5]; first compound 1 µM): 1.05
relative viability ([6]; first compound 0.01 µM): 0.98
relative viability ([6]; first compound 0.03162 µM): 0.814
relative viability ([6]; first compound 0.1 µM): 0.966
relative viability ([6]; first compound 0.3162 µM): 0.645
relative viability ([6]; first compound 1 µM): 0.303
relative viability ([7]; first compound 0.01 µM): 1
relative viability ([7]; first compound 0.03162 µM): 0.977
relative viability ([7]; first compound 0.1 µM): 0.995
relative viability ([7]; first compound 0.3162 µM): 1.05
relative viability ([7]; first compound 1 µM): 0.912
relative viability ([8]; first compound 0.01 µM): 1
relative viability ([8]; first compound 0.03162 µM): 0.897
relative viability ([8]; first compound 0.1 µM): 1.2
relative viability ([8]; first compound 0.3162 µM): 1.19
relative viability ([8]; first compound 1 µM): 0.924
relative viability ([9]; first compound 0.01 µM): 0.912
relative viability ([9]; first compound 0.03162 µM): 0.819
relative viability ([9]; first compound 0.1 µM): 1.3
relative viability ([9]; first compound 0.3162 µM): 1.35
relative viability ([9]; first compound 1 µM): 0.774
relative viability ([10]; first compound 0.01 µM): 1.07
relative viability ([10]; first compound 0.03162 µM): 0.946
relative viability ([10]; first compound 0.1 µM): 1.11
relative viability ([10]; first compound 0.3162 µM): 0.792
relative viability ([10]; first compound 1 µM): 0.308

O=c1cc(-c2cccc3c2Sc2ccccc2S3)oc(N2CCOCC2)c1 + CS(=O)(=O)CCNCc1ccc(-c2ccc3ncnc(Nc4ccc(OCc5cccc(F)c5)c(Cl)c4)c3c2)o1 [Lapatinib] (partner 2 µM)
relative viability ([1]; first compound 0.08 µM): 1.04
relative viability ([1]; first compound 0.253 µM): 1.23
relative viability ([1]; first compound 0.8 µM): 1.19
relative viability ([1]; first compound 2.53 µM): 0.87
relative viability ([1]; first compound 8 µM): 0.995
relative viability ([2]; first compound 0.08 µM): 0.359
relative viability ([2]; first compound 0.253 µM): 0.323
relative viability ([2]; first compound 0.8 µM): 0.306
relative viability ([2]; first compound 2.53 µM): 0.375
relative viability ([2]; first compound 8 µM): 0.386
relative viability ([3]; first compound 0.08 µM): 1.16
relative viability ([3]; first compound 0.253 µM): 1.16
relative viability ([3]; first compound 0.8 µM): 1.03
relative viability ([3]; first compound 2.53 µM): 1.07
relative viability ([3]; first compound 8 µM): 1.15
relative viability ([4]; first compound 0.08 µM): 0.201
relative viability ([4]; first compound 0.253 µM): 0.191
relative viability ([4]; first compound 0.8 µM): 0.196
relative viability ([4]; first compound 2.53 µM): 0.204
relative viability ([4]; first compound 8 µM): 0.202
relative viability ([5]; first compound 0.08 µM): 1.16
relative viability ([5]; first compound 0.253 µM): 0.806
relative viability ([5]; first compound 0.8 µM): 0.693
relative viability ([5]; first compound 8 µM): 1.2
relative viability ([6]; first compound 0.08 µM): 0.86
relative viability ([6]; first compound 0.253 µM): 1
relative viability ([6]; first compound 0.8 µM): 0.997
relative viability ([6]; first compound 2.53 µM): 0.918
relative viability ([6]; first compound 8 µM): 1.21
relative viability ([7]; first compound 0.08 µM): 0.972
relative viability ([7]; first compound 0.253 µM): 1
relative viability ([7]; first compound 0.8 µM): 0.997
relative viability ([7]; first compound 2.53 µM): 0.975
relative viability ([7]; first compound 8 µM): 0.96
relative viability ([8]; first compound 0.08 µM): 0.963
relative viability ([8]; first compound 0.253 µM): 1.15
relative viability ([8]; first compound 0.8 µM): 0.799
relative viability ([8]; first compound 2.53 µM): 0.956
relative viability ([8]; first compound 8 µM): 1.05
relative viability ([9]; first compound 0.08 µM): 0.886
relative viability ([9]; first compound 0.253 µM): 1.45
relative viability ([9]; first compound 0.8 µM): 0.94
relative viability ([9]; first compound 2.53 µM): 1.1
relative viability ([9]; first compound 8 µM): 0.971
relative viability ([10]; first compound 0.08 µM): 0.767
relative viability ([10]; first compound 0.253 µM): 1.13
relative viability ([10]; first compound 0.8 µM): 0.973
relative viability ([10]; first compound 2.53 µM): 0.787
relative viability ([10]; first compound 8 µM): 0.961
